Assay results: patent US10399976B2, “Dihydropyrrolopyridine inhibitors of ROR-gamma” (Vitae Pharmaceuticals, LLC, priority 2014, dated 2019)

Tests used:
[1] = biological target: recombinant RORγ Ligand Binding Domain (LBD) (Homo sapiens (Human), UniProt P51449); assay: Radio-Ligand RORγ Binding Assay (Assay 1); conditions: cell-free competition with 25-hydroxy [26,27-3H]-cholesterol, SPA; read-out: RORγ Binding Ki Range*
Description: Radio-Ligand ROR ? Binding Assay (Assay 1)
Compounds of the present invention were tested for ability to bind to ROR ? in a cell-free competition assay with commercially available radio-ligand (RL), 25-hydroxy [26,27-^3H]-cholesterol (PerkinElmer, Cat. # NET674250UC), for a ligand binding site on a recombinant ROR ? Ligand Binding Domain (LBD) protein expressed as a 6×His-Glutathione-S-Transferase (GST) fusion. […] The plate was shaken at 700 rpm for 20 min and incubated for 10 min at rt, after which 40 μL of poly-Lys YSi SPA beads (PerkinElmer, Cat. # RPNQ0010) were added to achieve 50 μg of the beads per well. The plate was incubated on an orbital shaker for 20 min and then for 10 min without agitation at rt. SPA signal for tritium beta radiation was registered on PerkinElmer Microbeta plate reader. […] The percent inhibition vs. concentration data were fit into a four-parameter model, and IC50 values were calculated from the fit as the concentrations corresponding to the inflection points on the dose-response curves.

[2] = biological target: full-length RORγt in Jurkat cells (Homo sapiens (Human), UniProt P51449); assay: RORγt 5×RORE Assay in Jurkat Cells (Assay 2); format: cell-based; conditions: Nanoluc luciferase reporter, 16-18 hrs, read-out: RORγt5X IC50 Range*
Description: [formula] ROR ? t 5×RORE Assay in Jurkat Cells (Assay 2)
Compounds of the present invention were tested for ROR ? inverse agonist activity in a cell-based, transcriptional activity assay. […] (Promega, Cat. # N1021) using KpnI and HindIII restriction sites. […] Luciferase activity in the conditioned supernatants was determined with NanoGlo® assay reagents (Promega, Cat.# N1130).

Sequence of recombinant RORγ Ligand Binding Domain (LBD) (P51449 269-508): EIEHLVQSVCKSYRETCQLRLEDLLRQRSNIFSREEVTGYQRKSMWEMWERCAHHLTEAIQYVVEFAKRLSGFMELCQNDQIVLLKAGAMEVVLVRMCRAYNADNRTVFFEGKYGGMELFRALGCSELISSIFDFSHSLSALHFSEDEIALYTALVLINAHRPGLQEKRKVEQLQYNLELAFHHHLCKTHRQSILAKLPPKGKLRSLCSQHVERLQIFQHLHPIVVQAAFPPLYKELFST
Sequence of full-length RORγt in Jurkat cells (P51449 other isoform, or with tags, fused parts or gaps): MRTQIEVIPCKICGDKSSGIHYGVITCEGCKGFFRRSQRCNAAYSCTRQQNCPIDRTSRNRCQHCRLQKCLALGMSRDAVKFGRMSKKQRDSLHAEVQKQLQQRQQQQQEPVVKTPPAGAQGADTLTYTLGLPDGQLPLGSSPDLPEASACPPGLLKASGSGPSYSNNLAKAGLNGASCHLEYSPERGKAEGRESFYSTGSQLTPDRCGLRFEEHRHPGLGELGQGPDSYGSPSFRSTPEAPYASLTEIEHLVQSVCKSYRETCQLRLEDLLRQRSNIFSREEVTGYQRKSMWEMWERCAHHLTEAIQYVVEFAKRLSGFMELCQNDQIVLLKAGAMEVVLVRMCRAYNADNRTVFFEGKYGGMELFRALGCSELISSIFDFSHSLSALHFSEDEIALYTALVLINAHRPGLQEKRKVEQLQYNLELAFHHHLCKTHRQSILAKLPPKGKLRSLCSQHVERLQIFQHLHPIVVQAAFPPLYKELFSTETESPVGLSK

Compound | Ki [1] [nM] | IC50 [2] [nM]
CC(C)[C@H]1c2ncc(C(=O)NCc3ccnn3C)cc2CN1Cc1ccc(C(F)(F)F)cc1 [Compound 73] | > 1000 | –
CC(C)[C@H]1c2ncc(C(=O)NCc3cnn(C)c3)cc2CN1Cc1ccc(C(F)(F)F)cc1 [Compound 76] | 100 to 1000 | –
CCS(=O)(=O)n1cc(CNC(=O)c2cnc3c(c2)CN(Cc2ccc(C(F)(F)F)cc2)[C@H]3C(C)C)cn1 [Compound 133] | < 100 | 100 to 1000
